# Laboratory results published in ChEMBL document CHEMBL5252673, “Development of thiazole-appended novel hydrazones as a new class of α-amylase inhibitors with anticancer assets: an in silico and in vitro approach” (RSC Med Chem, 2023).
# Experiments:
# Alpha amylase [1] = target: T1, Alpha amylase (Homo sapiens, UniProt P0DUB6); assay: Inhibition of alpha-amylase (unknown origin) using starch as substrate preincubated with substrate for 15 mins followed by compound addition and measured after 15 mins by UV-VIS spectrophotometric analysis
# T1 sequence (P0DUB6 whole entry): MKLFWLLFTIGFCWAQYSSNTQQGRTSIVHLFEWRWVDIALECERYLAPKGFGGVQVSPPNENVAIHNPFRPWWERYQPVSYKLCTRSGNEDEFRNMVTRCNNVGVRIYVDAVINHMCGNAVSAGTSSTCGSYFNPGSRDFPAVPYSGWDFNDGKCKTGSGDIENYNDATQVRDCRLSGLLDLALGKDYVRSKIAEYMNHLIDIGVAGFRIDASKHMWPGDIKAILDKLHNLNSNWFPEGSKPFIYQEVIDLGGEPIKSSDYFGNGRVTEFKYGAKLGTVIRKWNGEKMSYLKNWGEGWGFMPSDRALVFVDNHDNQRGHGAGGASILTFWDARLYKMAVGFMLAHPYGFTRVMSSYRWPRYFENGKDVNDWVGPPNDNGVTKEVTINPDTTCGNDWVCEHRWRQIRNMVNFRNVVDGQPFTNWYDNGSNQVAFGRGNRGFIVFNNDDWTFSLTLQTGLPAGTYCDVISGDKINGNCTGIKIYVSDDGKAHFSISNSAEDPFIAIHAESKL
# MDA-MB-231 = assay: Antiproliferative activity against human MDA-MB-231 cells assessed as inhibition of cell growth incubated for 48 hrs by MTT assay; assay type: functional, cell-based; details: MDA-MB-231, 48 h
# HCT-116 = assay: Antiproliferative activity against human HCT-116 cells assessed as inhibition of cell growth incubated for 48 hrs by MTT assay; assay type: functional, cell-based; details: HCT-116, 48 h
# A549 [2] = assay: Antiproliferative activity against human A549 cells assessed as inhibition of cell growth incubated for 48 hrs by MTT assay; assay type: functional, cell-based; details: A549, 48 h
# Alpha amylase [3] = target: T1, Alpha amylase; assay: Inhibition of alpha-amylase (unknown origin)
# Alpha amylase [4] = target: T1, Alpha amylase; assay: Inhibition of alpha-amylase (unknown origin) using p-nitrophenylR-D-maltoside as substrate incubated for 30 mins by […]
# Alpha amylase [5] = target: T1, Alpha amylase; assay: Inhibition of alpha-amylase (unknown origin) using starch as substrate incubated for 30 mins by microplate reader analysis
# MCF-10A = assay: Cytotoxicity against human MCF-10A assessed as reduction in cell viability upto 10 uM incubated for 48 hrs by MTT assay; assay type: toxicity, cell-based
# A549 [6] = assay: Induction of ROS in human A549 cells at sub IC50 concentration incubated for 24 hrs by H2DCFDA dye based fluorescence assay (reference value: 33.28%); assay type: functional
smiles,measurement,setting,value
COc1ccc(/C=N/NC(=O)c2csc(Nc3ccc([N+](=O)[O-])cc3)n2)cc1,IC50,Alpha amylase [1],0.32 µM
same,IC50,MDA-MB-231,14 µM
same,IC50,HCT-116,4.65 µM
same,IC50,A549 [2],8.97 µM
O=C(N/N=C/c1ccc(O)cc1)c1csc(Nc2ccc(Cl)cc2)n1,IC50,Alpha amylase [1],0.41 µM
same,IC50,MDA-MB-231,15.7 µM
same,IC50,HCT-116,5.67 µM
same,IC50,A549 [2],7.43 µM
COc1ccc(Nc2nc(C(=O)N/N=C/c3ccccc3)cs2)cc1,IC50,Alpha amylase [1],0.49 µM
same,IC50,MDA-MB-231,> 25 µM
same,IC50,HCT-116,4.32 µM
same,IC50,A549 [2],6.32 µM
COc1cc(-c2nc3ccccc3[nH]2)ccc1OCC(=O)Nc1ccccc1C,IC50,Alpha amylase [3],11 µM
COc1ccc(Nc2nc(C(=O)N/N=C/c3ccc(OC)c(OC)c3)cs2)cc1,IC50,Alpha amylase [1],0.43 µM
same,IC50,MDA-MB-231,3.22 µM
same,IC50,HCT-116,2.31 µM
same,IC50,A549 [2],2.97 µM
O=C(N/N=C/c1ccc(O)cc1)c1csc(Nc2ccccc2)n1,IC50,Alpha amylase [1],0.45 µM
same,IC50,MDA-MB-231,8.33 µM
same,IC50,HCT-116,4.44 µM
same,IC50,A549 [2],11.3 µM
COc1ccc(Nc2nc(C(=O)N/N=C/c3cccc(N)c3)cs2)cc1,IC50,Alpha amylase [1],0.46 µM
same,IC50,MDA-MB-231,> 25 µM
same,IC50,HCT-116,14.9 µM
same,IC50,A549 [2],10 µM
O=C(N/N=C/c1ccc(Cl)cc1)c1csc(Nc2ccc(Cl)cc2)n1,IC50,Alpha amylase [1],0.39 µM
same,IC50,MDA-MB-231,> 25 µM
same,IC50,HCT-116,17.2 µM
same,IC50,A549 [2],14 µM
COc1ccc(Nc2nc(C(=O)N/N=C/c3ccc(O)cc3)cs2)cc1,IC50,Alpha amylase [1],0.5 µM
same,IC50,MDA-MB-231,9.87 µM
same,IC50,HCT-116,6.96 µM
same,IC50,A549 [2],7.99 µM
O=[N+]([O-])c1ccc(/C(CSc2nnc3c(n2)[nH]c2ccccc23)=N\Nc2nc(-c3ccc([N+](=O)[O-])cc3)co2)cc1,IC50,Alpha amylase [4],1.2 µM
O=C(N/N=C/c1ccc(O)c(O)c1)c1csc(Nc2ccc(Cl)cc2)n1,IC50,Alpha amylase [1],0.39 µM
same,IC50,MDA-MB-231,5.6 µM
same,IC50,HCT-116,5.43 µM
same,IC50,A549 [2],5.09 µM
Cc1ccc([C@H]2C3CSCN3[C@@]3(C(=O)Nc4ccccc43)[C@]23N=C(c2ccccc2)OC3=O)cc1 (some centres undefined),IC50,Alpha amylase [3],1.76 µM
O=C1CS/C(=N\N=C\c2ccc(OS(=O)(=O)c3ccccc3[N+](=O)[O-])cc2)N1,IC50,Alpha amylase [3],42.8 µM
Cc1ccc(-c2csc(N/N=C(/CSc3nnc4c(n3)[nH]c3ccccc34)c3ccc([N+](=O)[O-])cc3)n2)cc1,IC50,Alpha amylase [4],1.2 µM
Cc1cccc(-c2nc3scc(-c4cccc([N+](=O)[O-])c4)n3n2)c1,IC50,Alpha amylase [5],1.1 µM
COc1ccc(/C=N/NC(=O)c2csc(Nc3ccc(OC)cc3)n2)cc1,IC50,Alpha amylase [1],0.47 µM
same,IC50,MDA-MB-231,6.89 µM
same,IC50,HCT-116,7.83 µM
same,IC50,A549 [2],7.88 µM
COc1cc(/C=N/NC(=O)c2csc(Nc3ccc([N+](=O)[O-])cc3)n2)ccc1O,IC50,Alpha amylase [1],0.24 µM
same,IC50,MDA-MB-231,4.98 µM
same,IC50,HCT-116,2.43 µM
same,Activity,MCF-10A,Non-Toxic
same,Activity,A549 [6],27.19%
same,IC50,A549 [2],1.99 µM
COc1cc2c(c(OC)c1OC)-c1ccc(OC)c(=O)cc1[C@@H](NC(C)=O)CC2 [COLCHICINE],IC50,MDA-MB-231,1.98 µM
same,IC50,HCT-116,1.85 µM
same,IC50,A549 [2],1.09 µM
COc1cc(/C=N/NC(=O)c2csc(Nc3ccc(Cl)cc3)n2)ccc1O,IC50,Alpha amylase [1],0.32 µM
same,IC50,MDA-MB-231,6.55 µM
same,IC50,HCT-116,2.88 µM
same,IC50,A549 [2],2.16 µM
